Measurements: patent US20220305012A1, “L[…] TREATING SLEEP ISSUES” (EISAI R&D MANAGEMENT CO., LTD., priority 2019, published 2022)

Legend:
[1] = system: Subjects Having Insomnia Disorder; assay: Example 2: Insomnia Severity Index Total Score (Items 1-7); type: in vivo, human; settings: for Insomnia Severity Total Score (Items 1-7), Change from Study Baseline, Mean (SD) / Insomnia Severity Total Score (Items 1-7), Change from Study Baseline, Median / Insomnia Severity Total Score (Items 1-7), Mean (SD) / Insomnia Severity Total Score (Items 1-7), Median: Day 31
Source text: As used herein, the term “Insomnia Severity Index”, abbreviated as “ISI”, is an index calculated using a 7-item, self-report questionnaire assessing the nature, severity, and impact of insomnia (see Bastien, C. H., et al. “Validation of the Insomnia Severity Index as an outcome measure for insomnia research.” Sleep Med. 2001; 2(4): 297-307). The questionnaire evaluates: (1) severity of sleep onset; (2) sleep maintenance; (3) early morning awakening problems; (4) sleep dissatisfaction; (5) interference caused by sleep difficulties with daytime functioning; (6) noticeability of sleep problems by others; and (7) distress caused by the sleep difficulties. A 5-point scale is used to rate each item (0=no problem to 4=very severe problem) yielding a total score from 0 to 28. Total ISI score (items (1)-(7)) and daytime functioning (items (4)-(7)) are analyzed separately.
On day 1 of the baseline period, subjects were admitted to the clinic and ISI, FSS, and EQ-5D-3L were administered. Blood and urine samples were collected for routine safety assessments, an ECG was performed, and vital signs and weight were assessed. The eC-SSRS was administered. Subjects who completed the baseline period and continued to meet the eligibility criteria were randomized and began the randomization phase.
(§1) On the evening of Day 30, subjects returned to the clinic. A pre-dose blood sample was collected and study drug was again administered within 5 minutes of the subject's mean habitual bedtime. A polysomnogram recording was initiated. The following morning (Day 31), postural stability and cognitive performance were assessed and a blood sample was obtained. The ISI, FSS, EQ-5D-3L and PGI-Insomnia were administered. Blood and urine samples were collected for routine safety assessment. An electrocardiogram was performed, and vital signs and weight were assessed. The eC-SSRS was then administered to the subject. At 1.5 hours after waketime, subjects rated their morning sleepiness level.

[2] = system: Subjects Having Insomnia Disorder; assay: Example 2: subjective wake after sleep onset (sWASO), sleep diary; type: in vivo, human
Source text: As used herein, the term “subjective wake after sleep onset”, abbreviated as “sWASO”, means the sum of estimated minutes of wake during the night after initial sleep onset until the time the subject stopped trying to sleep for the night, operationalized as the time the subject got out of bed for the day. In some embodiments, sWASO is derived from data entered in a subject's Sleep Diary. As used herein, an “improvement of sWASO” means a reduction in sWASO.
In some embodiments, sleep diaries were used to assess sleep parameters reported by subjects (i.e., subjective assessments) including subjective sleep onset latency (sSOL), subjective sleep efficiency (sSE), subjective WASO (sWASO), and subjective total sleep time (sTST). Subjects were instructed to complete the Sleep Diary developed based on the consensus Sleep Diary as described in Carney et al., “The consensus sleep diary: standardizing prospective sleep self-monitoring,” Sleep 2012; 35(2):287-302. In some embodiments, the Sleep Diary was used to assess the subject's global perception of quality of sleep on the previous night with the following question: “How would you rate the quality of your sleep last night?” Subjects rated the quality of their sleep on a scale from 1 to 9, with 1 being extremely poor and 9 being extremely good. In some embodiments, the Sleep Diary was used to assess subjective ratings of morning sleepiness with the following question: “How alert/sleepy do you feel this morning?” Subjects rated their sleepiness/alertness level on a Likert scale from 1 to 9, with 1 being extremely sleepy and 9 being extremely alert.
sWASO—subjective wake after sleep onset: sum of estimated minutes of wake during the night after initial sleep onset until the time the subject stopped trying to sleep for the night, operationalized as the time the subject got out of bed for the day.
(§2) The treatment period lasted for 31 days. Subjects were randomized in a double-blind manner and received placebo, a tablet containing 5 mg of lemborexant, a tablet containing 10 mg of lemborexant, or a tablet containing 6.25 mg of zolpidem ER.
Once home, the subject ingested study drug each night prior to bedtime and completed their sleep diary within 1 hour of waketime.

[3] = system: Subjects Having Insomnia Disorder; assay: Example 2: wake after sleep onset (WASO), polysomnography; type: in vivo, human
Protocol: In some embodiments, a sleep parameter is determined objectively using polysomnography. Polysomnography is the monitoring of multiple electrophysiological parameters during sleep and generally includes measurement of EEG activity, electro-oculographic activity and electromyographic activity, as well as other measurements.
WASO—wake after sleep onset: minutes of wake from the onset of persistent sleep until lights on.
as §2
Within 5 minutes of the subject's mean habitual bedtime, study drug was administered and an overnight polysomnogram recording was initiated. At completion of the recording the following morning (Day 2), postural stability and cognitive performance were assessed. On the Day 2 evening, subjects returned to the clinic and a blood sample was collected before administering study drug, and then study drug was administered within 5 minutes of the subject's mean habitual bedtime. Again, a polysomnogram recording was initiated. The next morning (Day 3), postural stability and cognitive performance were assessed. A blood sample was also collected.
On Day 29, subjects returned to the clinic. Study drug was administered within 5 minutes of the subject's mean habitual bedtime and a polysomnogram recording was conducted. On the following morning (Day 30), postural stability and cognitive performance were assessed. After 1.5 hours of waketime, subjects rated their morning sleepiness level.
as §1
Another key secondary endpoint was to determine the change from baseline for mean wake after sleep onset on Days 29 and 30 after administration of 5 mg or 10 mg of lemborexant, compared to placebo.

[4] = system: Subjects Having Insomnia Disorder; assay: Example 2: auditory awakening threshold
[5] = First 7 Nights of Treatment, Zolpidem ER 6.25 mg
[6] = Last 7 Nights of Treatment, Zolpidem ER 6.25 mg
[7] = Days 29/30, Zolpidem ER 6.25 mg
[8] = First 7 Nights of Treatment, Lemborexant 5 mg
[9] = First 7 Nights of Treatment, Lemborexant 10 mg
[10] = Last 7 Nights of Treatment, Lemborexant 5 mg
[11] = Last 7 Nights of Treatment, Lemborexant 10 mg

With Cc1ccc(-c2nc3ccc(C)cn3c2CC(=O)N(C)C)cc1 [Zolpidem ER, zolpidem, reference compound] the “Insomnia Severity Total Score (Items 1-7), Change from Study Baseline, Mean (SD)” value ([1]; Zolpidem ER 6.25 mg) was −8.26 (6.013), the “Insomnia Severity Total Score (Items 1-7), Change from Study Baseline, Median” value ([1]; Zolpidem ER 6.25 mg) was −8.00 and the “Insomnia Severity Total Score (Items 1-7), Mean (SD)” value ([1]; Zolpidem ER 6.25 mg) was 10.98 (5.452). The “Insomnia Severity Total Score (Items 1-7), Median” value ([1]; Zolpidem ER 6.25 mg) was 11.00, the “Subjective Wake After Sleep Onset, Change from Study Baseline, Mean (SD)” value (shortened to “Subjective Wake After Sleep Onset, Change … (SD)”) [2, 5] was −48.91 (51.761) and the “Subjective Wake After Sleep Onset, Mean (SD)” value [2, 5] was 124.83 (75.279). For the same compound, the “Subjective Wake After Sleep Onset, Model-adjusted change from baseline” value [2, 5] was −48.09, the “Subjective Wake After Sleep Onset, Change … (SD)” value [2, 6] was −63.52 (64.161) and the “Subjective Wake After Sleep Onset, Mean (SD)” value [2, 6] was 109.63 (72.583). For the same compound, the “Subjective Wake After Sleep Onset, Model-adjusted change from baseline” value [2, 6] was −62.00, the “Wake After Sleep Onset, Change from Study Baseline, Mean (SD)” value ([3]; Days 1/2, Zolpidem ER 6.25 mg) was −44.36 (38.074) and the “Wake After Sleep Onset, Change from Study Baseline, Median” value (shortened to “Wake After Sleep Onset, Change … Median”) ([3]; Days 1/2, Zolpidem ER 6.25 mg) was −44.13. For the same compound, the “Wake After Sleep Onset, Mean (SD)” value ([3]; Days 1/2, Zolpidem ER 6.25 mg) was 69.92 (33.517), the “Wake After Sleep Onset, Median” value ([3]; Days 1/2, Zolpidem ER 6.25 mg) was 62.00 and the “Wake After Sleep Onset, Change from Study Baseline, Mean (SD)” value [3, 7] was −36.50 (43.406). The “Wake After Sleep Onset, Change … Median” value [3, 7] was −34.63, the “Wake After Sleep Onset, Mean (SD)” value [3, 7] was 77.71 (39.932) and the “Wake After Sleep Onset, Median” value [3, 7] was 71.00. The “Auditory Awakening Threshold, LSM - Difference vs. Placebo” value ([4]; Zolpidem 6.25 mg) was 7.2, the “Auditory Awakening Threshold, Mean (SD)” value ([4]; Zolpidem 6.25 mg) was 58.4 and the “Auditory Awakening Threshold, Median” value ([4]; Zolpidem 6.25 mg) was 55.0.

Cc1ncc(OC[C@@]2(c3cccc(F)c3)C[C@H]2C(=O)Nc2ccc(F)cn2)c(C)n1 [Lemborexant, (1R,2S)-2-(((2,4-dimethylpyrimidin-5-yl)oxy)methyl)-2-(3-fluorophenyl)-N-(5-fluoropyridin-2-yl)cyclopropanecarboxamide] was tested, and the “Insomnia Severity Total Score (Items 1-7), Change from Study Baseline, Mean (SD)” value ([1]; Lemborexant 5 mg) was −7.75 (5.474), the “Insomnia Severity Total Score (Items 1-7), Change from Study Baseline, Median” value ([1]; Lemborexant 5 mg) was −7.00 and the “Insomnia Severity Total Score (Items 1-7), Mean (SD)” value ([1]; Lemborexant 5 mg) was 11.24 (5.387). For the same compound, the “Insomnia Severity Total Score (Items 1-7), Median” value ([1]; Lemborexant 5 mg) was 11.00, the “Insomnia Severity Total Score (Items 1-7), Change from Study Baseline, Mean (SD)” value ([1]; Lemborexant 10 mg) was −7.92 (5.894) and the “Insomnia Severity Total Score (Items 1-7), Change from Study Baseline, Median” value ([1]; Lemborexant 10 mg) was −7.00. For the same compound, the “Insomnia Severity Total Score (Items 1-7), Mean (SD)” value ([1]; Lemborexant 10 mg) was 11.11 (5.639), the “Insomnia Severity Total Score (Items 1-7), Median” value ([1]; Lemborexant 10 mg) was 11.00 and the “mean insomnia severity index total score” value ([1]; lemborexant treatment groups, relative to baseline and the placebo treatment group (Table 22)) was “reduced”. The “mean subjective wake after sleep onset” value ([2]; 10 mg, relative to baseline, placebo and zolpidem treatment groups (Table 20)) was “reduced”, the “Subjective Wake After Sleep Onset, Change … (SD)” value [2, 8] was −39.33 (55.022) and the “Subjective Wake After Sleep Onset, Mean (SD)” value [2, 8] was 127.37 (78.303). For the same compound, the “Subjective Wake After Sleep Onset, Model-adjusted change from baseline” value [2, 8] was −39.97, the “Subjective Wake After Sleep Onset, Change … (SD)” value [2, 9] was −55.06 (66.696) and the “Subjective Wake After Sleep Onset, Mean (SD)” value [2, 9] was 119.78 (74.825). The “Subjective Wake After Sleep Onset, Model-adjusted change from baseline” value [2, 9] was −53.90, the “Subjective Wake After Sleep Onset, Change … (SD)” value [2, 10] was −44.51 (58.090) and the “Subjective Wake After Sleep Onset, Mean (SD)” value [2, 10] was 119.30 (81.645). For the same compound, the “Subjective Wake After Sleep Onset, Model-adjusted change from baseline” value [2, 10] was −47.55, the “Subjective Wake After Sleep Onset, Change … (SD)” value [2, 11] was −57.96 (72.791) and the “Subjective Wake After Sleep Onset, Mean (SD)” value [2, 11] was 117.08 (83.753). The “Subjective Wake After Sleep Onset, Model-adjusted change from baseline” value [2, 11] was −56.64, the “Wake After Sleep Onset, Change from Study Baseline, Mean (SD)” value ([3]; Days 1/2, Lemborexant 5 mg) was −49.96 (39.578) and the “Wake After Sleep Onset, Change … Median” value ([3]; Days 1/2, Lemborexant 5 mg) was −46.75. The “Wake After Sleep Onset, Mean (SD)” value ([3]; Days 1/2, Lemborexant 5 mg) was 63.48 (31.484), the “Wake After Sleep Onset, Median” value ([3]; Days 1/2, Lemborexant 5 mg) was 58.38 and the “Wake After Sleep Onset, Change from Study Baseline, Mean (SD)” value ([3]; Days 1/2, Lemborexant 10 mg) was −59.59. For the same compound, the “Wake After Sleep Onset, Change … Median” value ([3]; Days 1/2, Lemborexant 10 mg) was −54.50, the “Wake After Sleep Onset, Mean (SD)” value ([3]; Days 1/2, Lemborexant 10 mg) was 55.23 and the “Wake After Sleep Onset, Median” value ([3]; Days 1/2, Lemborexant 10 mg) was 48.75. For the same compound, the “Wake After Sleep Onset, Change from Study Baseline, LSM treatment difference: Lemborexant-Zolpidem” value ([3]; Days 29/30, Lemborexant 5 mg) was −7.72 (2.876), the “Wake After Sleep Onset, Change from Study Baseline, Mean (SD)” value ([3]; Days 29/30, Lemborexant 5 mg) was −43.89 (39.264) and the “Wake After Sleep Onset, Change … Median” value ([3]; Days 29/30, Lemborexant 5 mg) was −39.50. The “Wake After Sleep Onset, Mean (SD)” value ([3]; Days 29/30, Lemborexant 5 mg) was 69.10 (34.533), the “Wake After Sleep Onset, Median” value ([3]; Days 29/30, Lemborexant 5 mg) was 62.63 and the “Wake After Sleep Onset, Change from Study Baseline, LSM treatment difference: Lemborexant-Zolpidem” value ([3]; Days 29/30, Lemborexant 10 mg) was −9.10. For the same compound, the “Wake After Sleep Onset, Change from Study Baseline, Mean (SD)” value ([3]; Days 29/30, Lemborexant 10 mg) was −46.43, the “Wake After Sleep Onset, Change … Median” value ([3]; Days 29/30, Lemborexant 10 mg) was −46.50 and the “Wake After Sleep Onset, Mean (SD)” value ([3]; Days 29/30, Lemborexant 10 mg) was 68.60. The “Wake After Sleep Onset, Median” value ([3]; Days 29/30, Lemborexant 10 mg) was 62.50, the “mean wake after sleep onset” value ([3]; all lemborexant treatment groups, relative to baseline, placebo and zolpidem treatment groups (Table 15)) was “reduced” and the “Auditory Awakening Threshold, LSM - Difference vs. Placebo” value ([4]; Lemborexant 5 mg) was 1.7. The “Auditory Awakening Threshold, Mean (SD)” value ([4]; Lemborexant 5 mg) was 51.8, the “Auditory Awakening Threshold, Median” value ([4]; Lemborexant 5 mg) was 50.0 and the “Auditory Awakening Threshold, LSM - Difference vs. Placebo” value ([4]; Lemborexant 10 mg) was −0.9. The “Auditory Awakening Threshold, Mean (SD)” value ([4]; Lemborexant 10 mg) was 51.7, the “Auditory Awakening Threshold, Median” value ([4]; Lemborexant 10 mg) was 52.5 and the “ability to be awakened by an external stimulus (auditory awakening threshold)” value ([4]; Table 27) was “did not interfere with a subject's ability to be awakened by an external stimulus”.
